According to patent EP0126849A1, “Pharmacologically active N-amino hydantoin derivatives, their synthesis and intermediates” (THE WELLCOME FOUNDATION LIMITED, priority 1983, dated 1984):
In brackets after ≈: the same amount, converted by molar mass. Where two headings read alike, the source gives them in different places.

Key:
[1] = test system: platelet aggregation; experiment: Inhibition of platelet aggregation in human platelet-rich plasma (Born-type aggregometer, ADP or other aggregating agent); assay type: cell-based; conditions: for IC50 / Potency relative to PGI2: human PRP; for IC50: 1 min incubation at 37°C before aggregating agent; for Potency relative to PGI2: 1 min incubation, PGI2 = 1; for Increase on Incubation (min) 5: increase in potency after 5 min incubation in PRP
Protocol: Human blood was freshly collected into siliconized (Siloclad; Clay Adams) plastic (Sterilin Ltd.) vessels containing trisodium citrate (3.15%; 0.1 volume with 0.9 volume blood) and centrifuged (200 g for 15 min) at room temperature. The platelet-rich plasma (PRP) was withdrawn into plastic containers and kept at room temperature. Inhibition of […] prior to addition of sufficient adenosine diphosphate (ADP) or other aggregating agent to just cause a non-reversing control aggregation. Dose-inhibition curves were constructed for each compound and the ID50 (dose causing 50% inhibition) was calculated as the dose required to reduce the aggregation to 50% of its control amplitude. […] For comparison, also given are the results upon administration of 5-(6-carboxyhexyl)-1-(3-cyclohexyl-3-hydroxypropyl)hydantoin (Compound X) which is disclosed in UK Specification 1,595,694. -
In this and subsequent biological examples, where a compound number refers to a single diastereoisomer, a mixture of diastereoisomers is indicated by two compound numbers separated by /.

[2] = test system: mean systemic arterial blood pressure (BP); experiment: Cardiovascular actions in rats: fall in blood pressure and duration of the hypotensive effect; assay type: in vivo, male Wistar rats; conditions: for Fall in BP Relative Potency PGE1 / Fall in BP Relative Potency PGI2: anaesthetized rat, i.v. injection; for Fall in BP Relative Potency PGE1: potency ratio against PGE1; for Fall in BP Relative Potency PGI2: potency ratio against PGI2; for Duration t½: time from peak hypotensive response to recovery to half its peak, rat i.v.
Protocol: Anaesthesia was induced in male Wistar rats (250-300 g body weight) with sodium pentobarbitone (30 mg kg^-1, i.v.) and supplemented (3 mg kg^-1) when required. Arterial pressure was recorded from a cannulated femoral artery and heart rate derived from the arterial pulse. Rectal temperature was maintained at 37°C by thermistor-controlled radiant heat. Each compound was injected into a femoral vein in a volume of 0.25 ml and flushed in with 0.2 ml of saline (0.9% w/v). Dose-response relationships for the fall in mean systemic arterial blood pressure (BP) with the hydantoins were constructed and compared to those obtained with PGI2 and PGE, in the same animal, and a potency ratio calculated. […] Figures for Compound X and PGI2 are listed for comparison.

[3] = test system: B.P.; experiment: Cardiovascular studies in the dog: vasodepressor potency and duration; assay type: in vivo, Dogs; conditions: i.v. bolus
Protocol: Dogs (10-15 kg body weight) were anaesthetized with chloralose (80 mg/kg i.v.) and maintained with subcutaneous injections of pentobarbitone (3 mg/kg). Drugs were administered via a femoral vein by bolus injection and B.P. was recorded from the right femoral artery. Results give vasodepressor potency and t1 2 duration. Figures for Compound X are provided for comparison.

[4] = test system: acid-ethanol induced gastric lesions; experiment: Inhibition of acid-ethanol induced gastric lesions in rats (cytoprotection); assay type: in vivo; conditions: rat, oral
Protocol: The inhibition of acid-ethanol induced gastric lesions in rats (cytoprotection) was measured for various doses of orally administered hydantoin. Figures for compound X are given for comparison.

[5] = Homo sapiens, Platelet, 1 min, read-out: IC50

O=C(O)CCCCCCC1C(=O)NC(=O)N1N=CC(O)c1ccccc1 (single isomer, unassigned) [Compound No. 11, 5-(6-carboxyhexyl)-1-(2-hydroxy-2-phenylethylldeneamino)hydantoln]
IC50 [1, 5]: 1 ng/mL (≈ 0.00277 µM)
Potency relative to PGI2 [1]: 0.53
Increase on Incubation (min) 5 [1]: x8
Fall in BP Relative Potency PGE1 [2]: 1.1
Fall in BP Relative Potency PGI2 [2]: 0.1
Duration t½ [2]: 16.0 min

CCCCCC(O)CNN1C(=O)NC(=O)C1CCCCCCC(=O)O (single isomer, unassigned) [Compound No. 35, 5-(6-carboxyhexyl)-I-(2-hydroxyheptylamino)hydantoin]
IC50 [1, 5]: 12.7 ng/mL (≈ 0.0355 µM)
Potency relative to PGI2 [1]: 0.05
Increase on Incubation (min) 5 [1]: x1.5
Fall in BP Relative Potency PGI2 [2]: 0.01
Duration t½ [2]: 1.3 min

O=C(O)CCCCCCC1C(=O)NC(=O)N1NCC(O)C1CCCCC1 (single isomer, unassigned) [compound 29, 5-(6-carboxyhexyl)-1-(2-cyclohexyl-2-hydroxyethylamino)hydantoln]
IC50 [1, 5]: 6 ng/mL (≈ 0.0162 µM)
Potency relative to PGI2 [1]: 0.16
Increase on Incubation (min) 5 [1]: x7
Δ BP ([3]; Dose 0.625 ug kg^-1): -26 mm Hg
t1/2 ([3]; Dose 0.625 ug kg^-1, duration of vasodepressor effect): >30 min
Δ BP ([3]; Dose 1.25 ug kg^-1): -51 mm Hg
t1/2 ([3]; Dose 1.25 ug kg^-1, duration of vasodepressor effect): >60 min
Fall in BP Relative Potency PGE1 [2]: 0.24
Fall in BP Relative Potency PGI2 [2]: 0.02
Duration t½ [2]: 37 min

CCOC(=O)CCCCCCC1C(=O)NC(=O)N1N=CC(OC(C)=O)C1CCCCC1 (stereo not drawn) [4/5, 1-(2-acetoxy-2-cyclohexylethylideneamino)-5-(6-ethoxycarbonylhexyl)hydantoin]
% inhibition ([4]; Dose 50 μg kg^-1): 90 ± 6%

CCCCCC(O)C=NN1C(=O)NC(=O)C1CCCCCCC(=O)O (stereo not drawn) [17/18, 5-(6-carboxyhexyl)-1-(2-hydroxyheptylideneamino)hydantoin]
IC50 [1]: 8 ngml^-1
Potency relative to PGI2 [1]: 0.12
Increase on Incubation (min) 5 [1]: x2
Fall in BP Relative Potency PGE1 [2]: 0.48
Fall in BP Relative Potency PGI2 [2]: 0.04
Duration t½ [2]: 10 to 19 min

O=C(O)CCCCCCC1C(=O)NC(=O)N1N=CC(O)Cc1ccccc1 (stereo not drawn) [23/24, 5-(6-carboxyhexyl)-1-(2-hydroxy-3-phenylpropylideneamino)hydantoin]
% inhibition ([4]; Dose 10 μg kg^-1): 55 ± 15%

CN1C(=O)C(CCCCCCC(=O)O)N(N=CC(O)C2CCCCC2)C1=O (stereo not drawn) [25/26, 5-(6-carboxyhexyl)-1-(2-cyclohexyl-2-hydroxyethylideneamino)-3-methylhydantoin]
IC50 [1, 5]: 13 ng/mL (≈ 0.0341 µM)
Potency relative to PGI2 [1]: 0.06
Increase on Incubation (min) 5 [1]: x6
Fall in BP Relative Potency PGE1 [2]: 1.08
Fall in BP Relative Potency PGI2 [2]: 0.09
Duration t½ [2]: 9 min

O=C(O)CCCCCCC1C(=O)NC(=O)N1NCC(O)c1ccccc1 (stereo not drawn) [33/34, 5-(6-carboxyhexyl)-1-(2-hydroxy-2-phenylethylamino) hydantoin]
IC50 [1]: 6 ngml^-1
Potency relative to PGI2 [1]: 0.17
Increase on Incubation (min) 5 [1]: x2
Fall in BP Relative Potency PGE1 [2]: 0.24
Fall in BP Relative Potency PGI2 [2]: 0.02
Duration t½ [2]: 6 min

CCCCCC(O)CNN1C(=O)NC(=O)C1CCCCCCC(=O)O (stereo not drawn) [35/36, 5-(6-carboxyhexyl)-1-(2-hydroxyheptylamino)hydantoin]
IC50 [1, 5]: 1.27 ng/mL (≈ 0.00355 µM)
Potency relative to PGI2 [1]: 0.49
Increase on Incubation (min) 5 [1]: x1.5
Fall in BP Relative Potency PGI2 [2]: 0.06
Duration t½ [2]: 0.1 min

CN1C(=O)C(CCCCCCC(=O)O)N(NCC(O)C2CCCCC2)C1=O (stereo not drawn) [37/38]
% inhibition ([4]; Dose 10 μg kg^-1): 71 ± 7%
IC50 [1, 5]: 3 ng/mL (≈ 0.00782 µM)
Potency relative to PGI2 [1]: 0.18
Increase on Incubation (min) 5 [1]: x7
Fall in BP Relative Potency PGE1 [2]: 0.36
Fall in BP Relative Potency PGI2 [2]: 0.03
Duration t½ [2]: 17 min

CCCCCC(O)C=NN1C(=O)NC(=O)C1CCCCCCC(=O)O (stereo not drawn) [Compound No. 17, 5-(6-carboxyhexyl)-1-(2-hydroxyheptylideneamino)hydantoin]
IC50 [1]: 131 ngml^-1
Potency relative to PGI2 [1]: 0.01
Increase on Incubation (min) 5 [1]: x2
Fall in BP Relative Potency PGE1 [2]: 0.12
Fall in BP Relative Potency PGI2 [2]: 0.01
Duration t½ [2]: 3.5 min

O=C(O)CCCCCCC1C(=O)NC(=O)N1NCC(O)C1CCCCC1 (stereo not drawn) [Compound No. 30, 5-(6-carboxyhexyl)-1-(2-cyclohexyl-2-hydroxyethylamino) hydantoin]
% inhibition ([4]; Dose 25 μg kg^-1): 65 ± 17%
IC50 [1, 5]: 0.9 ng/mL (≈ 0.00244 µM)
Potency relative to PGI2 [1]: 0.64
Increase on Incubation (min) 5 [1]: x6
Fall in BP Relative Potency PGE1 [2]: 0.24
Fall in BP Relative Potency PGI2 [2]: 0.02
Duration t½ [2]: 28 min

O=C(O)CCCCCCC1C(=O)NC(=O)N1NCC(O)c1ccccc1 (stereo not drawn) [Compound No. 33, 5-(6-carboxyhexyl)-1-(2-hydroxy-2-phenylethylamino)hydantoin]
IC50 [1]: 5.3 ngml^-1
Potency relative to PGI2 [1]: 0.07
Increase on Incubation (min) 5 [1]: x2

O=C(O)CCCCCCC1C(=O)NC(=O)N1NCC(O)c1ccccc1 (stereo not drawn) [Compound No. 34, 5-(6-carboxyhexyl)-1-(2-hydroxy-2-phenylethylamino)hydantoin]
IC50 [1]: 175 ngml^-1
Potency relative to PGI2 [1]: 0.003

O=C(O)CCCCCCC1C(=O)NC(=O)N1N=CCC1CCCCC1 (stereo not drawn) [compound 8, 5-(6-carboxyhexyl)-1-(2-cyclahexylethylideneamino) hydantoin]
% inhibition ([4]; Dose 25 μg kg^-1): 71 ± 6%
% inhibition ([4]; Dose 50 μg kg^-1): 76 ± 11%
IC50 [1, 5]: 24 ng/mL (≈ 0.0683 µM)
Potency relative to PGI2 [1]: 0.05
Fall in BP Relative Potency PGE1 [2]: 0.11
Fall in BP Relative Potency PGI2 [2]: 0.01
Duration t½ [2]: 1.0 min
